Reference: patent US11000506B2, “Envenomation therapies and related pharmaceutical compositions, systems and kits” (OPHIREX, INC, priority 2014, dated 2021)
Entries after “also recorded” stand apart in the source; their conditions may differ. Like-named read-outs stand apart in the source and are kept apart here.

Key:
[1] = tested on: snake venom metalloproteinase; assay: time course of metalloproteinase activity with excess venom (FIG. 2A); assay type: biochemical; details: inhibitors 100 uM; venom 0.444 mg/mL
Method: Substrate for MP was DQ Gelatin and assay run per EnzChek gelatinase assay manufacturers instructions. Venom MP activity was not optimized in initial experiments, but reaction rates were during experiments performed by an independently contracted laboratory. SP assay was performed using Nα-Benzoyl-L-arginine-7-amido-4-methylcoumarin hydrochloride. […] Unless otherwise specified, in the case of my experiments, only crude, unfractionated lyophilized venom purchased from Sigma or the Miami Serpentarium were used. Plate Setup: Manufacturers guidelines (paraphrased herein) were followed unless otherwise specified. Data Analysis: xcel per manufacturers recommendations. MP and SP assays were prepared and plated in the same manner as PLA2 assays except substrates and fluorophores were different. PBS was the buffer in the case of MP and SP assays and absorbance measured at 495 nm. Substrate for MP was DQ Gelatin and assay run per EnzChek gelatinase assay manufacturers instructions except that experiments were run, unconventionally at 37 C to estimate human body temperature and initial experiments for PLA2, MP activity and SP activity were not optimized for screening (e.g. extremely high doses of venom were used—10 mg/mL stock in all cases since the quality of the venom was unknown with final concentration of 0.444 mg/mL in the test wells). SP assay was performed using Na-Benzoyl-L-arginine-7-amido-4-methylcoumarin hydrochloride (Sigma). Specifics of contract laboratory technique vary from the present inventor's initial experiments in terms of venom and substrate optimization, plate size (384 instead of 96), volume and temperature and other factors including different operators such as those described immediately below, performed following the first pilot experiments and subsequently extended by a contract laboratory.
(§9) Screening was carried out for inhibitors of venom sPLA2, MP and SPs. Stock solutions of venom at 10 mg/mL were used without typical dilution for assaying various inhibitors of sPLA2, MP and SPs. The final venom concentration in the assays was very high at 0.444 mg/mL.

[2] = tested on: snake venom PLA2; assay type: biochemical
Method: (§1) Background. Phospholipase A2 (PLA2) catalyzes the hydrolysis of phospholipids at the sn-2 position yielding a free fatty acid and a lysophospholipid. The release of arachidonic acid from membrane phospholipids by PLA is believed to be a key step in the control of eicosanoid production within the cell. The Bee Venom PLA2 Control was a 100 μg/ml solution of bee venom PLA2 is supplied as a positive control in the kit (Abcam kit catalog number ab133089). Substrate for MP was DQ Gelatin and assay run per EnzChek gelatinase assay manufacturers instructions. Venom MP activity was not optimized in initial experiments, but reaction rates were during experiments performed by an independently contracted laboratory. SP assay was performed using Nα-Benzoyl-L-arginine-7-amido-4-methylcoumarin hydrochloride. These kits were stored as specified if stored at −20° C. Unless otherwise specified, in the case of my experiments, only crude, unfractionated lyophilized venom purchased from Sigma or the Miami Serpentarium were used. Plate Setup: Manufacturers guidelines (paraphrased herein) were followed unless otherwise specified. Data Analysis: xcel per manufacturers recommendations. MP and SP assays were prepared and plated in the same manner as PLA2 assays except substrates and fluorophores were different. PBS was the buffer in the case of MP and SP assays and absorbance measured at 495 nm. […]
(§2) Small molecule screening and dose-response experiments took place in the Yale Center for Molecular Discovery. […] PerkinElmer EnVision (3) and Tecan infinite M1000 (2) plate readers sensitively measure absorbance, fluorescence, fluorescence polarization and luminescence in 96- and 384-well plate formats. […]

[3] = tested on: D. russelli venom; assay: survival of mice given Daboia russelli venom (FIG. 8); assay type: in vivo; details: varespladib 4 mg/kg SC 60 to 90 minutes before lethal dose of D. russelli venom; N=3
[4] = tested on: Agkistrodon piscivorus venom PLA2; assay: venom sPLA2 inhibition IC50, varespladib and CroFab alone and together; assay type: biochemical
Method: (§3) Background. Phospholipase A2 (PLA2) catalyzes the hydrolysis of phospholipids at the sn-2 position yielding a free fatty acid and a lysophospholipid. The release of arachidonic acid from membrane phospholipids by PLA is believed to be a key step in the control of eicosanoid production within the cell. The Bee Venom PLA2 Control was a 100 μg/ml solution of bee venom PLA2 is supplied as a positive control in the kit (Abcam kit catalog number ab133089). Substrate for MP was DQ Gelatin and assay run per EnzChek gelatinase assay manufacturers instructions. Venom MP activity was not optimized in initial experiments, but reaction rates were during experiments performed by an independently contracted laboratory. SP assay was performed using Nα-Benzoyl-L-arginine-7-amido-4-methylcoumarin hydrochloride. These kits were stored as specified if stored at −20° C. Unless otherwise specified, in the case of my experiments, only crude, unfractionated lyophilized venom purchased from Sigma or the Miami Serpentarium were used. Plate Setup: Manufacturers guidelines (paraphrased herein) were followed unless otherwise specified. Data Analysis: xcel per manufacturers recommendations. MP and SP assays were prepared and plated in the same manner as PLA2 assays except substrates and fluorophores were different. PBS was the buffer in the case of MP and SP assays and absorbance measured at 495 nm. Substrate for MP was DQ Gelatin and assay run per EnzChek gelatinase assay manufacturers instructions except that experiments were run, unconventionally at 37 C to estimate human body temperature and initial experiments for PLA2, MP activity and SP activity were not optimized for screening (e.g. extremely high doses of venom were used—10 mg/mL stock in all cases since the quality of the venom was unknown with final concentration of 0.444 mg/mL in the test wells). SP assay was performed using Na-Benzoyl-L-arginine-7-amido-4-methylcoumarin hydrochloride (Sigma). Specifics of contract laboratory technique vary from the present inventor's initial experiments in terms of venom and substrate optimization, plate size (384 instead of 96), volume and temperature and other factors including different operators such as those described immediately below, performed following the first pilot experiments and subsequently extended by a contract laboratory.
(§4) Small molecule screening and dose-response experiments took place in the Yale Center for Molecular Discovery. Instrumentation used when indicated included Tecan EVO (2), Tecan Aquarius, Matrix PlateMatePlus (2), Matrix PlateMate2×2 liquid transfer robots and Titertek and Thermo Multidrop liquid dispensers (7). PerkinElmer EnVision (3) and Tecan infinite M1000 (2) plate readers sensitively measure absorbance, fluorescence, fluorescence polarization and luminescence in 96- and 384-well plate formats. A GE InCell Analyzer 2200 imaging system acquires multicolor fluorescent and transmitted light images from plates. Piloting collections used in the first phases of screening were selected by the inventor or from libraries of known compounds and natural products available at the time of experiments on selected venoms including: NCC, GenPlus, Pharmakon, Bioactive lipids, Protease Inhibitors, Procured Drugs and FDA Approved Drugs libraries. The GenPlus (the NINDS Custom Collection) from MicroSource Discovery Systems contains 960 compounds. This unique selection of known bioactive compounds permits the simultaneous evaluation of hundreds of marketed drugs and biochemical standards. The Pharmakon 1600 collection (MicroSource) includes known drugs used globally or studied in clinical trials.
(§5) Each assay was characterized in similar fashion, using methodology well-established in the Center. Assays are typically performed in 384-well microtiter plates.

[5] = tested on: Agkistrodon contortrix venom PLA2; assay: as above; assay type: biochemical
Method: as §3, §4, §5

[6] = tested on: Acanthophis antarcticus venom PLA2; assay: as above; assay type: biochemical
Method: as §3, §4, §5

[7] = tested on: Crotalus scutulatus scutulatus venom PLA2; assay: as above; assay type: biochemical
Method: as §3, §4, §5

[8] = tested on: Crotalus adamanteus venom PLA2; assay: as above; assay type: biochemical
Method: as §3, §4, §5

[9] = tested on: Vipera berus venom; assay: survival of mice given Vipera berus venom (FIG. 9); assay type: in vivo; details: for survival versus controls: N=7
From the text: (§6) V. berus is the most widely distributed viper in the world, ranging across Europe and Eurasia and as far north as the Arctic circle. It elaborates both hemo- and neurotoxins dangerous especially to children, pets and large animals such as horses.

[10] = tested on: C. scutulatus venom; assay: survival of mice coinjected with C. scutulatus venom (FIG. 7A); assay type: in vivo; details: coinjected SC with C. scutulatus venom, single dose; N=4
[11] = tested on: Crotalus otrox venom PLA2; assay: venom sPLA2 inhibition IC50, varespladib and CroFab alone and together; assay type: biochemical, Crotalus atrox
Method: as §1, with “Plate Setup: Manufacturers guidelines (paraphrased herein) were followed unless otherwise specified. Data Analysis: xcel per manufacturers recommendations. MP and SP assays were prepared and plated in the same manner as PLA2 assays except substrates and fluorophores were different.” left out
as §2

[12] = target: bee venom PLA2 (Apis mellifera, UniProt P00630); assay type: biochemical
Sequence of bee venom PLA2 (P00630 34-167 limits assumed): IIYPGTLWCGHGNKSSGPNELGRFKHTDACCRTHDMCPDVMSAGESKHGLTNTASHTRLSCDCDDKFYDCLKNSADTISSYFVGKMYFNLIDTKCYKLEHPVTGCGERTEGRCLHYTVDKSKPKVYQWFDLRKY

[13] = tested on: snake venom serine proteases; assay: serine protease activity with excess venom (FIG. 3); assay type: biochemical; details: 100 um; venom 0.444 mg/mL; compared to marimastat and batimastat
Method: Substrate for MP was DQ Gelatin and assay run per EnzChek gelatinase assay manufacturers instructions. Venom MP activity was not optimized in initial experiments, but reaction rates were during experiments performed by an independently contracted laboratory. SP assay was performed using Nα-Benzoyl-L-arginine-7-amido-4-methylcoumarin hydrochloride. […] Unless otherwise specified, in the case of my experiments, only crude, unfractionated lyophilized venom purchased from Sigma or the Miami Serpentarium were used. Plate Setup: Manufacturers guidelines (paraphrased herein) were followed unless otherwise specified. Data Analysis: xcel per manufacturers recommendations. MP and SP assays were prepared and plated in the same manner as PLA2 assays except substrates and fluorophores were different. PBS was the buffer in the case of MP and SP assays and absorbance measured at 495 nm. Substrate for MP was DQ Gelatin and assay run per EnzChek gelatinase assay manufacturers instructions except that experiments were run, unconventionally at 37 C to estimate human body temperature and initial experiments for PLA2, MP activity and SP activity were not optimized for screening (e.g. extremely high doses of venom were used—10 mg/mL stock in all cases since the quality of the venom was unknown with final concentration of 0.444 mg/mL in the test wells). […]

[14] = varespladib alone, no venom; N=2
From the text: as §6

[15] = tested on: snake venom PLA2; assay: time course of PLA2 activity with excess venom (FIG. 1); assay type: biochemical; details: inhibitor 100 uM; venom 0.444 mg/mL final; 37 C
From the text: Plate Setup: Manufacturers guidelines (paraphrased herein) were followed unless otherwise specified. Data Analysis: xcel per manufacturers recommendations. […] Substrate for MP was DQ Gelatin and assay run per EnzChek gelatinase assay manufacturers instructions except that experiments were run, unconventionally at 37 C to estimate human body temperature and initial experiments for PLA2, MP activity and SP activity were not optimized for screening (e.g. extremely high doses of venom were used—10 mg/mL stock in all cases since the quality of the venom was unknown with final concentration of 0.444 mg/mL in the test wells).
as §9

[16] = tested on: M. fulvius venom; assay: treatment of rats after M. fulvius venom (FIG. 6E-H); assay type: in vivo; details: varespladib IV
Method: (§7) Mice received SC injections of M. fulvius venom at ^˜4 times the expected LD50 (typically estimated to be 1.3 mg/kg SC) (0.1 mg M. fulvius venom/animal for approximate dose of ^˜4 mg/kg). Prior to venom injection animals received either total dose 0.1 mg varespladib exipient (sham treatment) by SC route for calculated concentration of 4 mg/kg varespladib ^˜10-15 minutes before venom administration. Surviving animals were euthanized by CO2 inhalation at the end of experiments and observations periods ranging from ^˜12 hours to as long as 30 hours (survival being designated at 24 hours). […] In mice: Varespladib 4-8 mg/kg subcutaneously or orally with methylvarespladib, taken ad libitum. In rats, varespladib or excipient was administered intravenously at 30 seconds or 5 minutes following subcutaneous administration of venom at 4 or 8 mg/kg. Blood sampling and assay for sPLA2 activity was performed with samples taken from a surgically implanted jugular venous catheter at precise intervals (baseline, 30 minutes, 1 hour and 4 hours).
(§8) 6B Mice fed methylvarespladib or exipient ad libitum in biscuits had high-dose M. fulvius venom administered ^˜5 hours after introduction of the biscuits (N=2 each group). […] 6C Venom and varespladib (4 mg/kg) or venom and excipient were mixed just prior to administration and injected subcutaneously. At 5 hours (300 minutes, down-pointing arrow), surviving animals were retreated with ½ dose varespladib (2 mg/kg) or excipient. […] Mice either received venom and sham/excipient (N=7), methylvarespladib (N=3) or varespladib (N=7) ^˜30 seconds to 1.5 minute following venom administration. […] Confirmatory experiments and results of 6E-H were performed in rats by a contract laboratory to assess expand knowledge of varespladib's capacity to act in therapeutic mode and see if the effects of intravenous administration were similar to subcutaneous administration. 6E and 6F M. fulvius venom was administered subcutaneously (4 mg/kg or 8 mg/kg) and then excipient or varespladib 8 mg/kg was administered at 30 seconds or 5 minutes after envenomation.

[17] = tested on: Daboia russelli venom MP; assay: metalloproteinase activity over time, Daboia russelli venom (FIG. 2B); assay type: biochemical; details: 100 uM; venom 0.444 mg/mL
Method: Substrate for MP was DQ Gelatin and assay run per EnzChek gelatinase assay manufacturers instructions. Venom MP activity was not optimized in initial experiments, but reaction rates were during experiments performed by an independently contracted laboratory. […] These kits were stored as specified if stored at −20° C. Unless otherwise specified, in the case of my experiments, only crude, unfractionated lyophilized venom purchased from Sigma or the Miami Serpentarium were used. Plate Setup: Manufacturers guidelines (paraphrased herein) were followed unless otherwise specified. Data Analysis: xcel per manufacturers recommendations. MP and SP assays were prepared and plated in the same manner as PLA2 assays except substrates and fluorophores were different. PBS was the buffer in the case of MP and SP assays and absorbance measured at 495 nm. Substrate for MP was DQ Gelatin and assay run per EnzChek gelatinase assay manufacturers instructions except that experiments were run, unconventionally at 37 C to estimate human body temperature and initial experiments for PLA2, MP activity and SP activity were not optimized for screening (e.g. extremely high doses of venom were used—10 mg/mL stock in all cases since the quality of the venom was unknown with final concentration of 0.444 mg/mL in the test wells). […]

[18] = tested on: M. fulvius venom; assay: protection of mice from M. fulvius venom (FIG. 6A-D); assay type: in vivo
Method: as §7, §8

[19] = tested on: C. atrox venom MP; assay: HTS for inhibitors of C. Atrox venom MP; assay type: biochemical
Method: as §3
as §4, with “This unique selection of known bioactive compounds permits the simultaneous evaluation of hundreds of marketed drugs and biochemical standards. The Pharmakon 1600 collection (MicroSource) includes known drugs used globally or studied in clinical trials.” left out

[20] = tested on: E. carinatus venom MP; assay: HTS for inhibitors of E. carinatus venom MP; assay type: biochemical; details: compounds approximately 10 μM/well
Method: as §3
as §4, with “This unique selection of known bioactive compounds permits the simultaneous evaluation of hundreds of marketed drugs and biochemical standards. The Pharmakon 1600 collection (MicroSource) includes known drugs used globally or studied in clinical trials.” left out

[21] = target: snake venom metalloproteinase; assay: IC50 for MP inhibition on various venoms (Table 8, FIG. 20); assay type: biochemical; details: general statement; values only in figures
[22] = tested on: M. fulvius venom PLA2; assay: HTS for inhibitors of M. fulvius venom PLA2; assay type: biochemical; details: compounds approximately 10 μM/well
[23] = varespladib alone, read-out: Varespladib (IC50 nM)
[24] = varespladib and CroFab ® together, read-out: Varespladib IC50 (nM) With CroFab ®

CCc1c(C(=O)C(N)=O)c2c(OCC(=O)O)cccc2n1Cc1ccccc1 [Varespladib]
inhibition of metalloproteinase activity (time course) [1]: showed inhibition of MP activity in several snake venoms
inhibition of snake venom PLA2 in vitro [2]: inhibited snake venom PLA2; also recorded: inhibited the measured sPLA2 activity of several medically important snake venoms
IC50 ([2]; read-out: IC50s specific for snake venoms, lowest value): ≥ 50 pM
survival at 24 hours [3]: all survived 24 hours
survival versus controls [3]: outlived controls
IC50 [4, 23]: 0.28 nM
IC50 [4, 24]: 0.05 nM
IC50 [5, 23]: 0.22 nM
IC50 [5, 24]: 0.045 nM
IC50 [6, 23]: 0.74 nM
IC50 [6, 24]: 0.43 nM
IC50 [7, 23]: 1.51 nM
IC50 [7, 24]: 0.82 nM
IC50 [8, 23]: 0.25 nM
IC50 [8, 24]: 0.05 nM
animals that outlived controls ([9]; Venom SC followed by Varespladib SC 8 mg/kg): 4 of 5
survival versus controls ([9]; lethal venom dose just prior to SC varespladib): outlived controls
animals surviving 24 hours ([9]; varespladib IV 8 mg/kg lateral tail vein following venom): 5 of 5
survival versus controls ([9]; venom and varespladib injected simultaneously SC): outlived controls
survival versus venom only controls [10]: outlived controls
IC50 [11, 23]: 0.32 nM
IC50 [11, 24]: 0.07 nM
inhibition of bee venom PLA2 [12]: not inhibited; also recorded: only a modest effect
inhibitory effects on snake venom serine proteases [13]: unexpected inhibitory effects
signs of toxicity [14]: no signs of toxicity
inhibition of snake venom PLA2 activity (time course) [15]: inhibited PLA2 activity in all snake venoms tested
sPLA2 activity in blood samples ([16]; high dose coral snake venom SC, baseline, 30 minutes, 1 hour, 4 hours): dramatic suppression of sPLA2 activity
gross hemolysis in serum samples ([16]; venom SC): no or minimally visible hemolysis
pulmonary hemorrhage at necropsy ([16]; venom SC): either no or minimal pulmonary hemorrhage
inhibition of Daboia russelli venom MP over time [17]: comparable inhibition
mice that died within 8 hours ([18]; varespladib 4 mg/kg SC minutes before M. fulvius venom 4 mg/kg SC): 0 of 5
mice survived to the endpoint of 24 hours ([18]; {}): 5/5

O=C(CCCCCCC(=O)Nc1ccccc1)NO [Vorinostat]
percental (%) reduction of MP activity ([19]; compounds approximately 10 μM/well): 42%

CCCCN1CCCCC1C(=O)Nc1c(C)cccc1C (stereo not drawn) [bupvicaine]
% Effect on E. carinatus venom MP [20]: > 10%

CCN(CC)CCN(Cc1ccc(-c2ccc(C(F)(F)F)cc2)cc1)C(=O)Cn1c(SCc2ccc(F)cc2)nc(=O)c2c1CCC2 [darapladib]
inhibition of bee venom PLA2 [12]: not inhibited

CCOC(=O)c1ccc(OC(=O)CCCCCNC(=N)N)cc1 [gabexate, ethyl-p[6-guanidinohexanoyloxy]-benzoate methansulfonate]
MP inhibition (in words) [19]: MP inhibition was seen
% Effect on E. carinatus venom MP [20]: 23%
IC50s on various venoms [21]: micromolar range

CNC(=O)[C@@H](NC(=O)[C@H](CC(C)C)[C@H](O)C(=O)NO)C(C)(C)C [marimastat]
inhibition of metalloproteinase activity (time course) [1]: most consistently showing significant inhibition
inhibition of Daboia russelli venom MP over time [17]: comparable inhibition

CCc1c(C(=O)C(N)=O)c2c(OCC(=O)OC)cccc2n1Cc1ccccc1 [methylvarespladib]
inhibition of snake venom PLA2 in vitro [2]: inhibited the measured sPLA2 activity of several medically important snake venoms
inhibition of bee venom PLA2 [12]: only a modest effect
inhibitory effects on snake venom serine proteases [13]: unexpected inhibitory effects
signs or symptoms of envenomation / protection from the effects of the venom ([18]; methylvarespladib fed ad libitum in biscuits, high-dose venom ~5 hours later, N=2): complete protection; also recorded: Neither treated mouse exhibited any signs or symptoms of envenomation

Ceramide
% effect (% inhibition) on M. fulvius venom PLA2 [22]: 43%
